# Data taken from ChEMBL document CHEMBL1201862, “PubChem BioAssay data set” (2004).
#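 Method: 48-hour compound exposure of cells in 96-well plates, five concentrations, linear interpolation of endpoints. Here, GI50 denotes the concentration required for 50% inhibition of growth.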 Activity calls are given as the source filed them. No stated cut-off is given here; in the data, active = GI50 up to about 1.1 µM and inactive = higher.
# Columns and labels:
# Test in all cases: NCI anticancer screen, dose series, 48 h
# SF-268 = test system: SF-268
# U-251 = test system: U-251
# A549 = test system: A549
# HCC 2998 = test system: HCC 2998
# SR = test system: SR
# T47D = test system: T47D
# HT-29 = test system: HT-29
# SK-MEL-2 = test system: SK-MEL-2
# UACC-257 = test system: UACC-257
# M14 = test system: M14
# K562 = test system: K562
# OVCAR-5 = test system: OVCAR-5
# HOP-62 = test system: HOP-62
# ACHN = test system: ACHN
# UO-31 = test system: UO-31
# EKVX = test system: EKVX
# A498 = test system: A498
# NCI/ADR-RES = test system: NCI/ADR-RES
# MOLT-4 = test system: MOLT-4
# OVCAR-3 = test system: OVCAR-3
Compound,GI50 (SF-268),GI50 (U-251),GI50 (A549),GI50 (HCC 2998),GI50 (SR),GI50 (T47D),GI50 (HT-29),GI50 (SK-MEL-2),GI50 (UACC-257),GI50 (M14),GI50 (K562),GI50 (OVCAR-5),GI50 (HOP-62),GI50 (ACHN),GI50 (UO-31),GI50 (EKVX),GI50 (A498),GI50 (NCI/ADR-RES),GI50 (MOLT-4),GI50 (OVCAR-3)
O=c1[nH]c2nc(S)nc(S)c2[nH]1,> 100 µM (inactive),> 100 µM (inactive),> 100 µM (inactive),> 100 µM (inactive),> 100 µM (inactive),> 100 µM (inactive),> 100 µM (inactive),> 100 µM (inactive),> 100 µM (inactive),> 100 µM (inactive),> 100 µM (inactive),> 100 µM (inactive),> 100 µM (inactive),> 100 µM (inactive),> 100 µM (inactive),> 100 µM (inactive),> 100 µM (inactive),> 100 µM (inactive),> 100 µM (inactive),
COc1ccc(Nc2nc3ccccc3nc2C(=O)O)cc1OC,41 µM (inactive),> 100 µM (inactive),> 100 µM (inactive),71.6 µM (inactive),> 100 µM (inactive),33.8 µM (inactive),> 100 µM (inactive),,98.2 µM (inactive),> 100 µM (inactive),> 100 µM (inactive),> 100 µM (inactive),34.4 µM (inactive),44.8 µM (inactive),29.6 µM (inactive),61.7 µM (inactive),21.3 µM (inactive),35.2 µM (inactive),65 µM (inactive),40.2 µM (inactive)
Cc1ccc(C2=NOC(=O)[C@@H]3CCCC[C@@H]23)cc1,> 100 µM (inactive),> 100 µM (inactive),> 10 µM (inactive),> 100 µM (inactive),> 100 µM (inactive),76.4 µM (inactive),> 100 µM (inactive),,> 100 µM (inactive),> 100 µM (inactive),> 100 µM (inactive),> 100 µM (inactive),> 100 µM (inactive),> 100 µM (inactive),> 100 µM (inactive),> 100 µM (inactive),> 100 µM (inactive),> 100 µM (inactive),> 100 µM (inactive),> 100 µM (inactive)
CCOC(=O)C(=[N+]=[N-])C(=O)C[N+]12CCN(CC1)CC2,> 100 µM (inactive),> 100 µM (inactive),> 100 µM (inactive),> 100 µM (inactive),> 100 µM (inactive),> 100 µM (inactive),> 100 µM (inactive),> 100 µM (inactive),> 100 µM (inactive),> 100 µM (inactive),> 100 µM (inactive),> 100 µM (inactive),> 100 µM (inactive),> 100 µM (inactive),> 100 µM (inactive),,> 100 µM (inactive),> 100 µM (inactive),> 100 µM (inactive),> 100 µM (inactive)
CC1(C)C(C#N)C1C1=C(N2CCOCC2)[C@]2(C)C(OC(=O)c3ccccc3)CC[C@@H]2C1 (some centres not stated),> 100 µM (inactive),> 100 µM (inactive),> 100 µM (inactive),> 100 µM (inactive),61.5 µM (inactive),35.5 µM (inactive),50.1 µM (inactive),,> 100 µM (inactive),> 100 µM (inactive),38.5 µM (inactive),> 100 µM (inactive),> 100 µM (inactive),> 100 µM (inactive),> 100 µM (inactive),> 100 µM (inactive),> 100 µM (inactive),> 100 µM (inactive),34.9 µM (inactive),> 100 µM (inactive)
S=C1/C(=N/c2ccccc2)N(C2CCCCC2)/C(=N\C2CCCCC2)N1c1ccccc1,> 100 µM (inactive),32.2 µM (inactive),60 µM (inactive),86.5 µM (inactive),> 100 µM (inactive),82.6 µM (inactive),78.5 µM (inactive),> 100 µM (inactive),> 100 µM (inactive),,> 100 µM (inactive),> 100 µM (inactive),51.8 µM (inactive),> 100 µM (inactive),> 100 µM (inactive),> 100 µM (inactive),> 100 µM (inactive),> 100 µM (inactive),> 100 µM (inactive),
COc1ccc2c(-c3ccc(O)cc3)c(Oc3ccc(Cl)cc3)c(=O)oc2c1,8.07 µM (inactive),6.15 µM (inactive),4.7 µM (inactive),10.8 µM (inactive),2.94 µM (inactive),5.26 µM (inactive),,4.69 µM (inactive),8.95 µM (inactive),6.07 µM (inactive),7.21 µM (inactive),4.89 µM (inactive),12.9 µM (inactive),8.11 µM (inactive),1.14 µM (inactive),3.14 µM (inactive),6.79 µM (inactive),> 19.8 µM (inactive),3.72 µM (inactive),3.57 µM (inactive)
COc1cc(/C=C\C(=O)O)ccc1OCc1ccccc1,> 100 µM (inactive),> 100 µM (inactive),> 100 µM (inactive),> 100 µM (inactive),> 100 µM (inactive),> 100 µM (inactive),,> 100 µM (inactive),> 100 µM (inactive),> 100 µM (inactive),> 100 µM (inactive),> 100 µM (inactive),> 100 µM (inactive),> 100 µM (inactive),> 100 µM (inactive),> 100 µM (inactive),> 100 µM (inactive),> 100 µM (inactive),> 100 µM (inactive),> 100 µM (inactive)
OC(C/C=N/N=C/CC(O)(C(F)(F)Cl)C(F)(F)Cl)(C(F)(F)Cl)C(F)(F)Cl,> 10 µM (inactive),> 10 µM (inactive),> 10 µM (inactive),> 10 µM (inactive),> 10 µM (inactive),> 10 µM (inactive),> 10 µM (inactive),> 10 µM (inactive),> 10 µM (inactive),> 10 µM (inactive),> 10 µM (inactive),,> 10 µM (inactive),> 10 µM (inactive),> 10 µM (inactive),> 10 µM (inactive),> 10 µM (inactive),> 10 µM (inactive),> 10 µM (inactive),> 10 µM (inactive)
O=C1C(Nc2ccccc2)=CC2=NCCc3n[nH]c1c32,65.2 µM (inactive),37.4 µM (inactive),84.9 µM (inactive),34.8 µM (inactive),25.2 µM (inactive),34.4 µM (inactive),37 µM (inactive),61.7 µM (inactive),,46.8 µM (inactive),38.5 µM (inactive),> 100 µM (inactive),91.2 µM (inactive),55.6 µM (inactive),55.8 µM (inactive),41.1 µM (inactive),61.4 µM (inactive),28.6 µM (inactive),30.1 µM (inactive),25 µM (inactive)
O=C1C(=O)N(C23CC4CC(CC(C4)C2)C3)C(=S)N1c1ccccc1,> 100 µM (inactive),> 100 µM (inactive),65.5 µM (inactive),> 100 µM (inactive),> 100 µM (inactive),> 100 µM (inactive),> 100 µM (inactive),70.8 µM (inactive),32.7 µM (inactive),,> 100 µM (inactive),> 100 µM (inactive),> 100 µM (inactive),> 100 µM (inactive),> 100 µM (inactive),43.5 µM (inactive),> 100 µM (inactive),66.2 µM (inactive),> 100 µM (inactive),
COc1ccc(Oc2ccc3cc4c(cc3c2O)OCO4)c2cc(C)oc12,36 µM (inactive),,30.1 µM (inactive),23.2 µM (inactive),19.3 µM (inactive),12.3 µM (inactive),23.2 µM (inactive),18.5 µM (inactive),20.8 µM (inactive),26.6 µM (inactive),14.6 µM (inactive),59 µM (inactive),41.1 µM (inactive),35.6 µM (inactive),29.1 µM (inactive),28.7 µM (inactive),38.3 µM (inactive),20.9 µM (inactive),14.3 µM (inactive),28.8 µM (inactive)
CC(=O)OC1/C(=C/c2ccc([N+](=O)[O-])cc2)C[C@H]2[C@@H]3CC=C4C[C@@H](OC(C)=O)CC[C@]4(C)[C@H]3CC[C@]12C (some centres not stated),51.4 µM (inactive),46 µM (inactive),> 100 µM (inactive),> 100 µM (inactive),5.13 µM (inactive),> 100 µM (inactive),> 100 µM (inactive),> 61.5 µM (inactive),> 100 µM (inactive),> 100 µM (inactive),,> 100 µM (inactive),34.7 µM (inactive),99.8 µM (inactive),> 100 µM (inactive),> 85.7 µM (inactive),> 52.6 µM (inactive),> 43 µM (inactive),,> 100 µM (inactive)
COc1cc(-c2nc3cc(F)ccc3s2)ccc1O,41.4 µM (inactive),54.1 µM (inactive),67.5 µM (inactive),0.0622 µM (active),29.7 µM (inactive),0.286 µM (active),39.3 µM (inactive),> 100 µM (inactive),19 µM (inactive),58.3 µM (inactive),82.8 µM (inactive),> 100 µM (inactive),,89.5 µM (inactive),34.8 µM (inactive),5.73 µM (inactive),18.5 µM (inactive),78.9 µM (inactive),56.8 µM (inactive),12.8 µM (inactive)
COc1ccc2cc(C(C)C(=O)N3CCOC3=O)ccc2c1 (configuration not stated),> 100 µM (inactive),> 100 µM (inactive),> 100 µM (inactive),> 100 µM (inactive),> 100 µM (inactive),> 100 µM (inactive),> 100 µM (inactive),,> 100 µM (inactive),> 100 µM (inactive),> 100 µM (inactive),> 100 µM (inactive),> 100 µM (inactive),> 100 µM (inactive),> 100 µM (inactive),> 100 µM (inactive),71.4 µM (inactive),> 100 µM (inactive),> 100 µM (inactive),> 100 µM (inactive)
